We go through five molecules from patent publication US11844846B2, “Styrylbenzothiazole derivatives and uses in imaging methods” (Emory University, priority 2018, dated 2023).

“And” between values parts separate entries of the source, which are not always exact repeats. Equal entries are not always repeated. “Also recorded” adds a separate entry of the source. Where two headings read alike, the source gives them in different places.

One series deals with Tau PFFs (Homo sapiens, UniProt P10636). The experiment in a line: fluorescence spectroscopy titration with Tau PFFs. Format: binding. The following applies: 0.08 μM fibrils, 5 μM small molecule; result in words. The method, then: (§1) A fluorescent titration assay was conducted. The fluorescent emission intensities were determined with 0.08 μM of various fibrils in the presence of 5 μM of the small molecules.
(§2) To further investigate the selected compounds binding activities with α-Syn PFFs, fluorescence spectroscopy titrations were conducted to quantitatively measure compounds emission intensity when interacting with different concentrations of α-Syn PFFs. The UV spectrum of each compound was determined and selected for the optimal wavelength to conduct the fluorescence spectroscopic studies.

The target in the next series is α-Syn PFFs (Homo sapiens, UniProt P37840). The experiment in a line: fluorescence spectroscopy titration with α-Syn PFFs. Format: binding. The following applies: 0.08 μM fibrils, 5 μM small molecule, result in words. The method, then:
as §1, §2

Another series has as its target T1, Aβ PFFs (Homo sapiens, UniProt P05067).
T1 construct: counter-screening with Tau and Aβ PFFs
The experiment in a line: fluorescence spectroscopy titration with Aβ PFFs. The following applies: 0.08 μM fibrils, 5 μM small molecule; result in words. Format: binding. The method, then: as §1, §2

For series [1], the system named is neurons with Aβ or Tau aggregates. The experiment in a line: neuronal Aβ and Tau aggregation models, fluorescent microscopy. Format: cell-based. The following applies: primary cultured neurons. The source says: (§3) A series of derivatives were synthesized by including an amino group and a methyl group on benzothiazole to increase the brain permeability and fluorescent signals. The derivatives were subsequently subjected to α-Syn PFFs binding assay and counter-screening with Tau and Aβ PFFs. […] These compounds were screened on the neuronal α-Syn, Tau and Aβ aggregation model for the binding selectivity. Primary cultured neurons were infected with AAV-α-Syn, AAV-Tau FL for 7 days, then treated with α-Syn, Tau or Aβ PFFs. In a few days, the positive compounds were added in the primary neurons with indicated aggregates and analyzed under fluorescent microscopy.
(§4) Primary cultured neurons were infected with AAV-α-Syn, AAV-Tau FL or AAV-APP fragment virus for 7 days, and then treated with α-Syn, Tau or Aβ PFFs by following the described protocols (Volpicelli-Daley et al., 2014). In a few days, the positive compounds were added in the primary neurons with indicated aggregation.

Series [2] concerns the target T2, LBs and LNs in DLB and MSA patient brains (Homo sapiens, UniProt P37840).
T2 construct: from tissue; host or cells: brain sections of DLB and MSA patients
The experiment in a line: ex vivo screening on DLB and MSA patient brain sections. Format: binding. The text has this: (§5) Ex vivo screening was extended into human DLB, MSA and AD patient samples. […] Since there are detectable α-Syn aggregates in AD patient brains, these compounds colocalized with p-S129 positive α-Syn inclusions.
(§6) The ex vivo screening was extended into human DLB, MSA and AD patient samples. Neurodegenerative disease of DLB (dementia with Lewy Bodies) and MSA belongs to synucleinopathies with well-defined Lewy bodies.

Series [3] can be described thus: plasma-brain ratio study / in vivo PK of EU compounds. Further details: species or system mouse. The method, then: To address whether the selected compounds penetrate the brain, a plasma-brain ratio study was performed with EU04-03A, EU05-02A and EU05-02B.
To test whether these compounds are brain permeable in vivo, in vivo PK profiling was conducted to determine brain exposure.

The subject of series [4] is senile plaques or NFT in AD. The experiment in a line: ex vivo screening on AD patient brain sections. Format: binding, human.
Text: as §5, §6

Another series concerns α-Syn aggregated neurons. The experiment in a line: neuronal α-Syn aggregation model, fluorescent microscopy. Format: cell-based. The following applies: primary cultured neurons, AAV-α-Syn plus α-Syn PFFs.
Text: as §3, §4

The target of series [5] is T3, senile plaques in 5×FAD and 3×Tg mice brain sections (Homo sapiens, UniProt P05067).
T3 construct: Aβ-enriched senile plaques; from tissue; host or cells: brain sections of 5×FAD and 3×Tg mice
The experiment in a line: staining of mouse brain sections with senile plaques. Format: binding.

Series [6] concerns the target T4, Lewy bodies in α-Syn A53T virus injected WT mice brain slices (Homo sapiens, UniProt P37840, A53T).
T4 construct: from tissue; host or cells: brain (substantia nigra) of wild-type mice injected with α-Syn A53T virus
The experiment in a line: staining of mouse brain slices with Lewy bodies. Format: binding. The method, then: (§7) To further explore whether the positive compounds selectively bind to the Lewy bodies, α-Syn A53T patient-derived mutant virus injected WT mice brain slices were employed. These mice display extensive Lewy bodies in the SN.
(§8) To further explore whether the positive compounds selectively bind to the Lewy bodies, a α-Syn A53T patient-derived mutant virus was injected into WT mice brain slices. These mice display extensive Lewy bodies in the Substantial nigra (SN). Moreover, P301S mice expressed neurofibrillary tangles (NFT). The Lewy bodies were labeled with p-α-Syn S129 antibody and the positive aggregates were also labeled with the fluorescent signals from the small molecules. […] However, it was worth noting that almost none of the tested compounds were reactive with NFT.

The subject of series [7] is NFT in Tau P301S and 3×Tg mice brain sections. The experiment in a line: staining of mouse brain sections with NFT. Format: binding. The method, then:
as §7, §8

In series [8] the target is pre-formed fibrils (PFFs) of α-Synuclein (Homo sapiens, UniProt P37840). The experiment in a line: in vitro binding assay with α-Syn PFFs. The following applies: counter-screening, result in words.
Text: The general strategy that was employed to screen the candidate Lewy body PET agents is summarized as follows: (a) To perform in vitro binding assay with Pre-formed fibrils (PFFs) of α-Syn and counter-screening with Tau and Aβ PFFs; (b) To test the positive compounds in the neuronal models with aggregated α-Syn, Tau or […]; (c) To screen with the brain slides from α-Syn mutant A53T virus injected WT mice, and counter-screen with aged 3×Tg (containing both senile plaques and NFT), and aged Tau P301S (NFT) brain sections; (d) to screen the patient brain sections from DLB and MSA against AD; (e) To determine the binding kinetics between α-Syn PFFs and positive hits; (f) To determine the candidates in vivo brain/plasma (B/P) ratios and the brain permeability; (g) To determine the in vivo PET images in α-Syn A53T with candidates and compare its images in 5XFAD and Tau P301S mice.
To perform in vitro binding assay, commercial compounds were screened (See FIG. 7B).
as §3
To perform in vitro binding assay, compounds were screened. […] An amino group and a methyl group in the benzothazole were added to increase its brain permeability and fluorescent signals. […] The synthesized derivatives were subsequently subjected to the α-Syn PFFs binding and counter-screen of Tau and Aβ PFFs as described above.

Sequence of Tau PFFs (P10636 whole entry): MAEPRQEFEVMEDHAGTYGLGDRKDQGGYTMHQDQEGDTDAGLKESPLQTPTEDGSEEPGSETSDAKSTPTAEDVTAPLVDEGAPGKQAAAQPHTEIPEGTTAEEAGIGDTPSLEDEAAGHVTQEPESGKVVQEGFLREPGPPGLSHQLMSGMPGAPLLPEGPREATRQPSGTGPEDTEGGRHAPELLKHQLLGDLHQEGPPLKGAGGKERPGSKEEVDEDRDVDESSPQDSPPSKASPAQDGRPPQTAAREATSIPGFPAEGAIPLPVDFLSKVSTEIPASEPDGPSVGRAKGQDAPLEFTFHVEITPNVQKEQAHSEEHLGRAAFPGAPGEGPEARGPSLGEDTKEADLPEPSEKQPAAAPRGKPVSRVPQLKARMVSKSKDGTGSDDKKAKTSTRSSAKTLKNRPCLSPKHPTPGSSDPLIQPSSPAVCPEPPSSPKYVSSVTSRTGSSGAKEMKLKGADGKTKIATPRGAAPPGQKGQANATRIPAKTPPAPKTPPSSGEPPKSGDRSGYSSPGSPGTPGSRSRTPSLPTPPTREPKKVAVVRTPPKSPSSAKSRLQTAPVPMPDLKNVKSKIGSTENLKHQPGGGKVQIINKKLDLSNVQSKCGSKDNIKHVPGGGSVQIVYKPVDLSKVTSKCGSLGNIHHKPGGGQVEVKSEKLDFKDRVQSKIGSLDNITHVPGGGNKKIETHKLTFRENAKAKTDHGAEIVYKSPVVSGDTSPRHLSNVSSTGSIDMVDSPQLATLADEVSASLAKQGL
T1 sequence (P05067 672-713 limits assumed): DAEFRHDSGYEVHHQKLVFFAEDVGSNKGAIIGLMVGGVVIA
T3 sequence (P05067 672-713 limits assumed): as above

Take `CN(C)c1ccc2nc(/C=C/c3ccc(O)c(Br)c3)sc2c1` [EU-004-02B, (E)-2-bromo-4-(2-(6-(dimethylamino)benzo[d]thiazol-2-yl)vinyl)phenol]: the “binding to Tau PFFs by fluorescent emission intensity” value at Tau PFFs is “modest and weak binding activities toward these 3 PFFs”. Besides, the “binding to α-Syn PFFs by fluorescent emission intensity” value (shortened to “binding to α-Syn PFFs”) at α-Syn PFFs was “modest and weak binding activities toward these 3 PFFs”. Moreover, on Aβ PFFs, the “binding to Aβ PFFs by fluorescent emission intensity” value was “modest and weak binding activities toward these 3 PFFs”.
Take `CCNc1ccc2nc(/C=C/c3ccc(O)c(OC)c3)sc2c1` [EU-004-03A, (E)-4-(2-(6-(ethylamino)benzo[d]thiazol-2-yl)vinyl)-2-methoxyphenol]: the “binding to α-Syn PFFs” value on α-Syn PFFs was “but not EU-05-02A and EU-04-03A showed specific association with the PFFs”. Besides, the “fluorescent signal in neurons with Aβ or Tau aggregates” value in [1] is reported as “negligible effects in neurons with Aβ or Tau aggregates”. The “staining of LBs and LNs” value in series [2] was “robust signals with LBs and LNs”; in series [2] (listed as EU04-03A), “co-stained with Lewy bodies”. For the same molecule, in series [3] (mice, i.v., result in words, listed as EU04-03A), the brain permeability result is “swiftly penetrated the brain and exhibited much higher brain permeability compared to EU05-02A; also recorded: higher brain permeability than EU05-02B”. Also, the entries for the “staining of senile plaques or NFT (Aβ, AT8 positive aggregates)” value in series [4] and in series [4] (listed as EU04-03A) were “barely co-stained with anti-AD or AT8 positive aggregate signals” and “barely recognized AT8 positive Tau NFT or Aβ aggregates in AD brains”, respectively. In addition, the “fluorescent signal in α-Syn aggregated neurons” value in the series on α-Syn aggregated neurons is recorded as “positive for selective binding”; with α-Syn aggregated neurons (listed as EU04-03A), “positive signals in α-Syn aggregated neurons”.
On to `Cc1ccc2c(c1)sc(-c1ccc(N(C)C)cc1)[n+]2C.[Cl-]` [ThT, reference compound], for which, in series [5], the “staining of senile plaques” value was “co-localized with all of these aggregates in the brain sections”. Also, the “staining of Lewy bodies (p-α-Syn S129 positive)” value in series [6] is listed as “co-localized with all of these aggregates in the brain sections; also recorded: co-localized with p-S129 aggregates in the brain sections”. For the same molecule, the “staining of NFT” value in series [7] is on record as “co-localized with all of these aggregates in the brain sections”. The “binding selectivity α-Syn versus Aβ or Tau PFFs” value in series [8] is “non-selectively interacted with these PFFs; also recorded: non-selectively interacted with both α-Syn and Tau PFFs”.
Turning to `COc1cc(/C=C/c2nc3cc(C)c(N(C)C)cc3s2)ccc1O` [EU-005-02A, (E)-4-(2-(6-(dimethylamino)-5-methylbenzo[d]thiazol-2-yl)vinyl)-2-methoxyphenol], on Tau PFFs, the “binding to Tau PFFs by fluorescent emission intensity” value was “strongly bound to both α-Syn and Tau PFFs”. Also, the “binding to α-Syn PFFs” value on α-Syn PFFs was “strongly bound to both α-Syn and Tau PFFs”; on α-Syn PFFs (listed as EU-05-02A) it was “but not EU-05-02A and EU-04-03A showed specific association with the PFFs”. Moreover, the “staining of Lewy bodies (p-α-Syn S129 positive)” value in series [6] is “signals were very weak”. For the same molecule, in [1], the “fluorescent signal in neurons with Aβ or Tau aggregates” value is listed as “negligible effects in neurons with Aβ or Tau aggregates”. The “staining of LBs and LNs” value in series [2] was “robust signals with LBs and LNs”; in series [2] (listed as EU05-02A) it was “co-stained with Lewy bodies”. Also, the B/P in series [3] (Male ICR Mouse, 5 mg/kg IV, 0.50 h, single animals, 5 mg/kg) is 0.65 and 1.62 and 0.69; in series [3] (Male ICR Mouse, 5 mg/kg IV, 1.00 h, single animals, 5 mg/kg), 0.46 and 0.26; in [3] (Male ICR Mouse, 5 mg/kg IV, 2.00 h, single animals, 5 mg/kg), 0.49 and 0.34. For the same molecule, the Kp at 0.5 h in series [3] (male, ICR, mouse, brain, iv, 5 mg/kg, Male ICR Mouse, 5 mg/kg IV, 0.50 h, read-out: B/P Mean) came to 0.99. In addition, the Kp at 1 h in series [3] (male, ICR, mouse, brain, iv, 5 mg/kg, Male ICR Mouse, 5 mg/kg IV, 1.00 h, single animals, read-out: B/P) amounted to 0.52; in series [3] (male, ICR, mouse, brain, iv, 5 mg/kg, Male ICR Mouse, 5 mg/kg IV, 1.00 h, read-out: B/P Mean), 0.41. Further, the Kp at 2 h was 0.42 in series [3] (male, ICR, mouse, brain, iv, 5 mg/kg, Male ICR Mouse, 5 mg/kg IV, 2.00 h, single animals, read-out: B/P) and 0.41 in series [3] (male, ICR, mouse, brain, iv, 5 mg/kg, Male ICR Mouse, 5 mg/kg IV, 2.00 h, read-out: B/P Mean). In [3] (mice, i.v. 5 mg/kg, result in words), the “in vivo half-life / decay” value is on record as “decayed 2 h after i.v. administration”. The “staining of senile plaques or NFT (Aβ, AT8 positive aggregates)” value in series [4] is “barely co-stained with anti-AD or AT8 positive aggregate signals”; in series [4] (listed as EU05-02A) it was “barely recognized AT8 positive Tau NFT or Aβ aggregates in AD brains”. The “fluorescent signal in α-Syn aggregated neurons” value was “positive for selective binding” with α-Syn aggregated neurons and “positive signals in α-Syn aggregated neurons” with α-Syn aggregated neurons (listed as EU05-02A).
As to `COc1cc(/C=C/c2nc3ccc(N(C)C)cc3s2)ccc1O` [EU-004-02A, (E)-4-(2-(6-(dimethylamino)benzo[d]thiazol-2-yl)vinyl)-2-methoxyphenol], the “staining of Lewy bodies (p-α-Syn S129 positive)” value in series [6] is on record as “signals were very weak”.
